Experimental data taken from US20230277553A1, “THERAPEUTIC COMPOSITION OF CURE-PRO COMPOUNDS FOR TARGETED DEGRADATION OF BET DOMAIN PROTEINS, AND METHODS OF MAKING AND USAGE” (CORNELL UNIVERSITY, priority 2020, published 2023).
Entries after “also recorded” stand apart in the source; their conditions may differ.

Columns and labels:
Assay type in all cases: cell-based
[1] = biological target: T1, BRD4 (Homo sapiens, UniProt O60885); experiment: CURE-PRO-mediated BRD4 degradation with MDM2 ligands, WES (ProteinSimple), HCT116 cells; parameters: endogenous in cells; details: HCT116, 24 h, WES; for BRD4 degradation, in combination with MDM2 ligand 8313: 1:1 with 8313, 1-10 μM each; for BRD4 degradation, in combination with MDM2 ligand 8314: 1:1 with 8314, 1-10 μM each
Procedure: (§1) All cell lines were purchased from ATCC or DSMZ and grown at 37° C. with 5% CO2. Human HeLa cells were cultured in complete growth medium (Dulbecco's modified Eagle's medium (DMEM) supplemented with 10% FBS); MCF7 cells were cultured in complete growth medium (Dulbecco's modified Eagle's medium (DMEM) supplemented with 10% FBS and 0.01 mg/ml human recombinant insulin (Sigma Aldrich); Namalwa and MOLM-13 cells were cultured in complete growth medium (RPMI 1640 medium supplemented with 10% FBS); MV-4-11 were cultured in complete growth medium (Iscove's Modified Dulbecco's medium, supplemented with 10% FBS); HCT116 cells were cultured in complete growth medium (McCoy's 5a Medium supplemented with 10% FBS). For cellular degradation of BRD4 studies, cells were seeded in a 12-well plate at 70-80% confluency, allowed to attach overnight, and incubated with the indicated compounds for the indicated time. When indicated, a 15-minute pretreatment with 10 μM pomalidomide, 10 μM VHL298, 10 μM Nutlin3a, 1 μM MG-132 or 1 μM Carfilzomib was performed before the addition of CURE-PROs. For washout studies, after CURE-PRO treatment, media was aspirated and incubated with complete medium for the indicated time before lysis.
WES Simple analysis was performed on WES system (ProteinSimple-Biotechne) according to the manufacturer's instructions. Total protein concentrations of cell lysates were determined by the Pierce BCA kit (Thermo Fisher). 3 μL of 0.3 μg/μL of the protein lysate was loaded onto a 12- to 230-kDa WES assay plate (ProteinSimple) where 300 nL sample was withdrawn through a capillary, subjected to electrophoretic separation of proteins by size, and followed by the simultaneous, HRP-based detection of proteins using the Anti-Rabbit Detection Module (Proteinsimple: #DM-001). The electropherograms were checked then the automatic peak detection was manually corrected if it was required.
(§2) HCT116 cells (3×10^6) were treated for 24 hours with the compounds solubilized in DMSO. Compounds were added at 1 μM-10 μM each. Standardized protein samples were electrophoresed and imaged as described in the WES ProteinSimple section above. FIGS. 59, 60, and 61 depict the concentration-dependence of CURE-PRO-mediated BRD4 degradation using MDM2 ligands.
as §2, with “62” for “59, 60,”, “63” for “61”
HCT116 cells (3×10^6) were treated for 24 hours with the compounds solubilized in DMSO. CURE-PRO monomers were added at 10 μM each and the proteasomal inhibitors at 1 μM. Standardized protein samples were electrophoresed and imaged as described in the WES ProteinSimple section above. FIG. 68 depicts the dependence of the proteasome for CURE-PRO-mediated BRD4 degradation.

[2] = biological target: T1, BRD4; experiment: Summary of BRD4 degradation by CURE-PRO pairs, estimated from Western Blot or WES (Proteinsimple); parameters: endogenous in cells; details: for Degradation of BRD4 in combination with CRBN ligand [drawing 371] / Degradation of BRD4 in combination with CRBN ligand [drawing 372] / Degradation of BRD4 in combination with CRBN ligand [drawing 370]: Table 1; for Degradation of BRD4 in combination with CRBN ligand [drawing 371]: second drawing (8047); for Degradation of BRD4 in combination with CRBN ligand [drawing 372]: third drawing (8066); for Degradation of BRD4 in combination with CRBN ligand [drawing 370]: aromatic 1,2-diol- or hindered cis-1,2-diol-containing CRBN ligand, first drawing (8046); for Degradation of BRD4 in combination with CRBN ligand [drawing 407]: Table 4, aryl-boronic acid-containing CRBN ligand, first drawing (by text: 8048)
From the text: A black check mark indicates efficacy of 30% to 70% or higher protein degradation.

[3] = biological target: T1, BRD4; experiment: CURE-PRO-mediated BRD4 degradation, Western blot, HeLa cells; parameters: endogenous in cells; host or cells: HeLa; details: 24 h; for BRD4 degradation, BRD ligand alone: BRD monomer alone; for BRD4 degradation, co-treatment with CRBN ligand 8046: 1:1 with 8046, 10 μM each; for BRD4 degradation, co-treatment with CRBN ligand 8066: 1:1 with 8066, 10 μM each (BRD-E10: 10 and 100 μM); for BRD4 degradation, co-treatment with CRBN ligand 8047: 1:1 with 8047, 10 μM each; for BRD4 degradation, co-treatment with CRBN ligand 8048: 1:1 with 8048, 1-10 μM each
Procedure: as §1
Anti-BRD4 (13440, 1:1,000 dilution for Western Blot and 1:25 dilution for ProteinSimple); Anti-BRD2 (5848 1:1,000 dilution for Western Blot and 1:25 dilution for ProteinSimple); β-Actin (3700, 1:2,000 dilution for Western Blot), β-Actin (4970, 1:50 dilution for ProteinSimple) anti-mouse IgG-HRP, and anti-rabbit IgG-HRP antibodies were purchased Cell Signaling Technology. Anti-GAPDH (600-401-A33, 1:100 dilution for ProteinSimple) was purchased from Rockland Immunochemicals, Inc. Anti-BRD3 (sc-81202, 1:200 dilution for Western Blot) was purchased from Santa Cruz Biotechnology.
HeLa, MCF7, or HCT116 cells (2.5-3×10^6) were treated for 24 hours with the indicated compounds solubilized in DMSO. The cells were washed in ice-cold PBS and were then lysed in RIPA lysis buffer (150 mM NaCl, 5 mM EDTA, 1% NP-40, 0.5% sodium deoxycholate, 0.1% SDS, 50 mM Tris, pH 8.0.) with Roche protease inhibitor complete cocktail and phosphatase inhibitors (10 mM sodium fluoride, 10 mM sodium pyrophosphate, 1 mM sodium orthovanadate and 20 mM β-glycerophosphate). The total protein concentrations were determined by Bradford Protein Assay and 10-20 μg of protein was loaded onto 4-15% Tris-Glycine gradient gels (Biorad). After standard gel electrophoresis, the separated proteins were transferred to PVDF membrane by wet transfer. The immunoblots were then blocked for 1 hour in 5% skim milk in TBST or 5% BSA in TBST, according to manufacturer's instructions, before an overnight incubation at 4° C. with indicated antibodies and membranes. Membranes were then incubated with the appropriate horseradish peroxidase-conjugated secondary antibodies (1:5,000 dilution) for 1 h at room temperature and the bands were visualized using the Clarity Max Western ECL Substrate (Biorad) and the ChemiDoc Imaging System (Biorad). Signal was detected with ECL Western Blotting Substrate (Pierce) and X-ray film processed with a Konica SRX-101 X-ray film processor or captured by Bio-Rad's Chemidoc Imaging system.
HeLa cells (2.5×106) were treated for 24 hours with the sample compounds solubilized in DMSO. Compounds were added at 1-10 μM each. Standardized protein samples were electrophoresed and imaged as described in the immunoblotting description above. FIGS. 6-18 depicts the CURE-PRO-mediated BRD4 degradation for BRD monomers (JQ1 derivatives comprising of catechol linkers), and CRBN ligands, 8048 and 8049 (pomalidomide derivatives comprising boronic acid linkers) combined in a 1:1 ratio.
HeLa cells (2.5×106) were treated for 24 hours with the compounds solubilized in DMSO. The compounds were added at 10 μM each. Standardized protein samples were electrophoresed and imaged as described in the immunoblotting section above. […]

In the case of `CCNC(=O)C[C@@H]1N=C(c2ccc(Cl)cc2)c2cc(OCCNC(=O)c3cccc(B(O)O)c3)ccc2-n2c(C)nnc21` [BRD-E21, (3-((2-(((4S)-6-(4-chlorophenyl)-4-(2-(ethylamino)-2-oxoethyl)-1-methyl-4H-benzo[f][1,2,4]triazolo[4,3-a][1,4]diazepin-8-yl)oxy)ethyl)carbamoyl)phenyl)boronic acid], the “BRD4 degradation, in combination with MDM2 ligand 8313” value [1] is reported as “had no effect on BRD4 protein levels”, the “BRD4 degradation, in combination with MDM2 ligand 8314” value [1] is reported as “caused partial loss of the BRD4 protein; also recorded: Degradation is observed” and the “Degradation of BRD4 in combination with CRBN ligand [drawing 371]” value (“Degradation of BRD4 … [drawing 371]” for short) [2] is reported as “✓ (A black check mark indicates efficacy of 30% to 70% or higher protein degradation)”. The “Concentration from which BRD4 degradation is observed, co-dosed with 8047” value ([3]; 1:1 with 8047, tested 1 nM-1 μM each) was no less than 10 nM and the “BRD4 degradation, BRD ligand alone” value ([3]; Western blot) was “no change in expression”.

`CCNC(=O)C[C@@H]1N=C(c2ccc(Cl)cc2)c2cc(OCCCCCCNC(=O)c3ccc(B(O)O)cc3)ccc2-n2c(C)nnc21` [BRD-E79, (4-((6-(((4S)-6-(4-chlorophenyl)-4-(2-(ethylamino)-2-oxoethyl)-1-methyl-4H-benzo[f][1,2,4]triazolo[4,3-a][1,4]diazepin-8-yl)oxy)hexyl)carbamoyl)phenyl)boronic acid] was tested, and the “BRD4 degradation, in combination with MDM2 ligand 8313” value [1] was “caused BRD4 protein degradation at 1 and 10 μM; also recorded: Degradation of BRD4 is observed”, the “BRD4 degradation, in combination with MDM2 ligand 8314” value [1] was “no protein loss was observed” and the “Degradation of BRD4 … [drawing 371]” value [2] was “✓ (A black check mark indicates efficacy of 30% to 70% or higher protein degradation)”. The “Degradation of BRD4 in combination with CRBN ligand [drawing 372]” value (from here on “Degradation of BRD4 … [drawing 372]”) [2] was “✓ (A black check mark indicates efficacy of 30% to 70% or higher protein degradation)”, the “Degradation of BRD4 in combination with CRBN ligand [drawing 370]” value [2] was “✓ (A black check mark indicates efficacy of 30% to 70% or higher protein degradation)” and the “BRD4 degradation, co-treatment with CRBN ligand 8046” value ([3]; Western blot) was “causes degradation of BRD4; also recorded: Degradation is noted”. For the same molecule, the “BRD4 degradation, co-treatment with CRBN ligand 8066” value ([3]; Western blot) was “causes degradation of BRD4; also recorded: Degradation is noted” and the “BRD4 degradation, BRD ligand alone” value ([3]; Western blot) was “no change in expression”.

For `COc1ccc2c(c1)C(c1ccc(Cl)cc1)=N[C@@H](CC(=O)NCCCCNC(=O)c1ccc(B(O)O)cc1)c1nnc(C)n1-2` [BRD-E5], the “Degradation of BRD4 … [drawing 371]” value [2] was “✓ (A black check mark indicates efficacy of 30% to 70% or higher protein degradation)”, the “Degradation of BRD4 … [drawing 372]” value [2] was “✓ (A black check mark indicates efficacy of 30% to 70% or higher protein degradation)” and the “BRD4 degradation, co-treatment with CRBN ligand 8047” value ([3]; Western blot) was “causes degradation of BRD4; also recorded: Degradation is noted”. For the same molecule, the “BRD4 degradation, co-treatment with CRBN ligand 8066” value ([3]; Western blot) was “causes degradation of BRD4; also recorded: Degradation is noted”.

For `COc1ccc2c(c1)C(c1ccc(Cl)cc1)=N[C@@H](CC(=O)NCc1cccc(B(O)O)c1)c1nnc(C)n1-2` [BRD-E10], the “Degradation of BRD4 … [drawing 371]” value [2] was “✓ (A black check mark indicates efficacy of 30% to 70% or higher protein degradation)”, the “Degradation of BRD4 in combination with CRBN ligand [drawing 370]” value [2] was “✓ (A black check mark indicates efficacy of 30% to 70% or higher protein degradation)” and the “Degradation of BRD4 in combination with VHL ligand [drawing 396]” value ([2]; Table 3, aromatic 1,2-diol-containing VHL ligand, first drawing (by text: 8304)) was “✓ (A black check mark indicates efficacy of 30% to 70% or higher protein degradation)”. The “Concentration at which BRD4 degradation is observed, co-dosed with 8046” value ([3]; 1:1 with 8046) was 100 µM and the “Concentration at which complete BRD4 degradation is demonstrated, with 8047” value ([3]; 1:1 with 8047, tested 10 and 100 μM) was 10 µM.

In the case of `COc1ccc2c(c1)C(c1ccc(Cl)cc1)=N[C@@H](CC(=O)NCCNC(=O)c1ccc(O)c(O)c1)c1nnc(C)n1-2` [BRD-N1], the “Degradation of BRD4 in combination with CRBN ligand [drawing 407]” value [2] is reported as “✓ (A black check mark indicates efficacy of 30% to 70% or higher protein degradation)”, the “BRD4 degradation, co-treatment with CRBN ligand 8048” value ([3]; Western blot) is reported as “causes degradation of BRD4; also recorded: Degradation is noted” and the “BRD4 degradation, co-treatment with CRBN ligand 8049” value ([3]; 1:1 with 8049, 1-10 μM each, Western blot) is reported as “no evidence of BRD4 degradation”. The “BRD4 degradation, BRD ligand alone” value ([3]; Western blot) was “no degradation of BRD4”.

`CCNC(=O)C[C@@H]1N=C(c2ccc(Cl)cc2)c2cc(OCCOCCOCCOCCNC(=O)c3ccc(B(O)O)cc3)ccc2-n2c(C)nnc21` [BRD-E43] was tested, and the “Degradation of BRD4 … [drawing 371]” value [2] was “✓ (A black check mark indicates efficacy of 30% to 70% or higher protein degradation)”, the “Degradation of BRD4 … [drawing 372]” value [2] was “✓ (A black check mark indicates efficacy of 30% to 70% or higher protein degradation)” and the “BRD4 degradation, co-treatment with CRBN ligand 8046” value ([3]; Western blot) was “but not 8046”. The “BRD4 degradation, co-treatment with CRBN ligand 8047” value ([3]; Western blot) was “causes degradation of BRD4” and the “BRD4 degradation, co-treatment with CRBN ligand 8066” value ([3]; Western blot) was “causes degradation of BRD4; also recorded: Degradation is noted”.

In the case of `CCNC(=O)C[C@@H]1N=C(c2ccc(Cl)cc2)c2cc(OCCOCCNC(=O)c3ccc(O)c(O)c3)ccc2-n2c(C)nnc21` [BRD-N38, N-(2-(2-(((4S)-6-(4-chlorophenyl)-4-(2-(ethylamino)-2-oxoethyl)-1-methyl-4H-benzo[f][1,2,4]triazolo[4,3-a][1,4]diazepin-8-yl)oxy)ethoxy)ethyl)-3,4-dihydroxybenzamide], the “Degradation of BRD4 in combination with CRBN ligand [drawing 407]” value [2] is reported as “✓ (A black check mark indicates efficacy of 30% to 70% or higher protein degradation)”, the “BRD4 degradation, co-treatment with CRBN ligand 8048” value ([3]; Western blot) is reported as “causes degradation of BRD4” and the “BRD4 degradation, BRD ligand alone” value ([3]; Western blot) is reported as “no degradation of BRD4”.
